According to patent publication US20080200538A1, “Inhibition of Monocyte Survival, Differentiation, or Proliferation” (The Ohio State University Research Foundation, priority 2005, published 2008):

Assays:
U937 cells = test: Cell survival and apoptosis by calcein AM/PI staining; format: cell-based, human; conditions: U937, 50 μM
Description: FIG. 2. Apigenin induces cell death in monocytic leukemia cells. THP-1 and U937 leukemia cells were treated for various lengths of time with 50 μM apigenin or left untreated (NT) and stained with calcein AM and PI as described in Material and Methods to evaluate the percentage of cell survival. (A) THP cells after 12 h cells treated with 50 μM apigenin or with DMSO (NT). (B) The percentage of cell survival represented by means ±SEM (N=3).
(§1) To investigate apoptosis, cells were plated at a density of 1×10^6 cells/well. After treatment, cells were collected and washed in PBS. Cells were then incubated in RPMI (no phenol red) and 1 μg/ml calcein AM for 30 min and 5×10−2 ng/ml propidium iodide (PI) for 5 min. Cells were washed twice and resuspended in PBS. Cells were viewed using a fluorescent microscope (Olympus, Melville, N.Y.). At least 200 cells were counted. Cells calcein AM positive (green) in the absence of PI (red) were considered alive while cells undergoing apoptosis are green with red. Number of green cells or green with red cells was counted over total number of cells (green alone and green with red) to express cell survival or apoptotic cell percentage respectively.

caspase-9 = test: Caspase-9 activity, LEHD-AFC assay, U937 lysates; format: cell-based, human; conditions: U937, 50 μM apigenin; remained high even after 24 h
Description: (§2) FIG. 3. Apigenin induces caspase activation in monocytic leukemia. THP-1 (top) and U937 (bottom) leukemia cells were treated for various lengths of time with 50 μM apigenin or DMSO (NT). (A and C) Caspase-9 activity was determined by the LEHDAFC assay. (B and D) Caspase-3 activity was determined by the DEVD-AFC assay. Data represents means ±SEM (N=3).
(§3) For measurements of caspase activity, cells were plated at a density of 1.5×10^6 cells/well. After treatment, cells extracts were prepared as previously described (Doseff, A. I., Baker J. H., Bourgeois T. A. and Wewers M. D. (2003) Interleukin-4-induced zpoptosis entails caspase activation and suppression of extracellular signal-regulated kinase phosphorylation. Am. J. Resp. Cell Mol. Biol., 29, 367-374). Protein extracts were incubated with 20 μM DEVD-AFC to determine caspase-3 activity or LEHD-AFC to determine caspase-9 activity (Enzyme Systems Products, Livermore, Calif.) in a cytobuffer as previously described (Doseff, A. I., Baker J. H., Bourgeois T. A. and Wewers M. D. (2003) Interleukin-4-induced zpoptosis entails caspase activation and suppression of extracellular signal-regulated kinase phosphorylation. Am. J. Resp. Cell Mol. Biol., 29, 367-374). Levels of released AFC were measured using Cytofluor 400 fluorimeter (Filters: excitation 400 nm, emission 508 nm; Perspective Co., Framingham, Mass.).

caspase-3 [1] = test: Caspase-3 activity, DEVD-AFC assay, U937 lysates; format: cell-based, human; conditions: U937, 50 μM apigenin; remained high even after 24 h
Description: as §2, §3

LPS stimulated monocytes = test: Cell death of LPS-treated monocytes (calcein AM/PI); format: cell-based; conditions: monocytes stimulated with LPS, increasing amount of apigenin
Description: as §1
Apigenin induces cell death on LPS-treated monocytes. Monocytes were stained with calcein AM and PI as described in Material and Methods to evaluate the percentage of cell death and survival. Monocytes freshly isolated (Fresh), treated for 16 h with 10 ng/ml LPS alone, left untreated (NT) or (A) treated with different doses of apigenin, (B) with LPS and apigenin, or (C) with LPS 1 h prior to the addition of apigenin. Values represent the means ±SEM (N=#, *P<0.05 compared to LPS alone).

caspase-3 [2] = test: Caspase-3 activity in LPS-stimulated monocytes (DEVD-AFC); format: cell-based
Description: as §3
Apigenin reactivates caspase-3 on LPS-stimulated monocytes. Caspase-3 activity was determined by the DEVD-AFC assay in monocytes freshly isolated (Fresh) or monocytes cultured for 18 h left untreated, treated with 10 ng/m 1 LPS or (A) with different doses of apigenin alone, (B) with LPS and different doses of apigenin or (C) with LPS 1 h prior to the addition of apigenin. […]

IL-1β [3] = test: IL-1β release from LPS-treated monocytes (sandwich ELISA); format: cell-based; conditions: LPS stimulated monocytes
Description: Effect of apigenin on IL-1β release. IL-1β released was determined by sandwich ELISA in supernatants of freshly isolated monocytes, or monocytes cultured for 18 h left untreated, treated with 10 ng/ml of LPS or A with different doses of apigenin. B. LPS and different doses of apigenin added at the same time. C. LPS added 1 h prior to the addition of different doses of apigenin. Values represent means ±SEM (N=5, * P<0.05, compared to LPS alone)

IL-1β [4] = test: Cytokine expression in LPS-treated monocytes by quantitative PCR; format: cell-based; conditions: 10 ng/ml LPS and 10 μM apigenin
Description: (§4) Expression of IL-1β, IL-8 and TNFα was analyzed by quantitative PCR using lysates from monocytes left untreated, treated with 10 ng/ml of LPS or with LPS and 10 μM of apigenin. Values represent means ±SEM (N=4).

IL-8 = test: as above; format: cell-based; conditions: 10 ng/ml LPS and 10 μM apigenin
Description: as §4

TNFα = test: as above; format: cell-based; conditions: 10 ng/ml LPS and 10 μM apigenin
Description: as §4

THP-1 cells = test: Reverse-phase HPLC of extracts of treated THP-1 cells (conversion of compound); conditions: extracts of THP-1 cells, data not shown

For `O=c1cc(-c2ccc(O)cc2)oc2cc(O)cc(O)c12` [apigenin], the “decrease in cell survival” value (U937 cells; 12 h) was 10%, the “decrease in cell survival” value (U937 cells; 24 h) was 50% and the “caspase-9 activity, time course” value (caspase-9) was “detected at 9 h”. For the same molecule, the “caspase-3 activity, time course” value (caspase-3 [1]) was “detected at 9 h”, the “death of LPS stimulated monocytes” value (LPS stimulated monocytes) was “induces the death of such stimulated monocytes in an apigenin-dose dependent manner” and the caspase-3 activation (caspase-3 [2]) was “significantly increases”. The “release of IL-1β” value (IL-1β [3]) was “inhibits”, the “expression of IL-1β” value (IL-1β [4]) was “inhibits the expression” and the “expression of IL-8” value (IL-8) was “inhibits the expression”. For the same molecule, the “expression of TNFα” value (TNFα) was “inhibits the expression” and the “conversion to another chemical entity in treated cells” value (THP-1 cells) was “neither one of these two compounds is significantly converted”.
